# US20250163104A1, “MACROCYCLIC IMMUNOMODULATORS” (priority 2021, published 2025)
# Where a SMILES comes first, the peptide text is derived from it. Bridges are numbered along the chain shown (N, C = ends). [ ]: non-standard residue; d: D form. The star is where a group is joined. Phe(4-COOH) = N[C@@H](Cc1ccc(C(=O)O)cc1)C(=O)O; Bip = N[C@@H](Cc1ccc(-c2ccccc2)cc1)C(=O)O; Cha = N[C@@H](CC1CCCCC1)C(=O)O; Carboxymethyl = O=C(O)C*; Orn = NCCC[C@H](N)C(=O)O; Dab = NCC[C@H](N)C(=O)O; Dap = NC[C@H](N)C(=O)O
# Target: T1, human PD-1 / PD-L1-Ig binding on Jurkat cell line over-expressing human PD-1 (Jurkat-PD-1) (Homo sapiens, UniProt Q15116)
# T1 construct: expressed in transfected cells; host or cells: Jurkat
# Assay: Jurkat-PD-1 Cell Binding High-Content Screening Assay (CBA)
# Type: cell-based
# Settings: Jurkat-PD-1 cells, PE-labeled PD-L1-Ig 20 nM final; read-out: Jurkat HPD1_PDL1 IC50
# Procedure, shortened: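 PE-PD-L1-Ig 20 nM final; cells in DMEM/10% FCS; cpd pre-incubation 2 h, 37° C; ligand 1 h; PFA fix + Hoechst 33342; high-content imaging read-out.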
# T1 sequence (Q15116 25-288): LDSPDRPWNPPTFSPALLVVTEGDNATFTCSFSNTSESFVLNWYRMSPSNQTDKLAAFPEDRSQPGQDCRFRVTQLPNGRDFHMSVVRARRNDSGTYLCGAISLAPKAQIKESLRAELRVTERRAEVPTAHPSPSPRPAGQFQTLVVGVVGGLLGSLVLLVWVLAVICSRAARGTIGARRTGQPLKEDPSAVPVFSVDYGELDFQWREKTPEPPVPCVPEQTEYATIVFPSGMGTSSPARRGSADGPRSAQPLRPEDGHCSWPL
row,Structure (SMILES),IC50 [nM]
1,CC(C)C[C@H]1NC(=O)[C@H](CCCN)NC(=O)[C@H](C(C)C)NC(=O)[C@H](Cc2ccc(-c3ccccc3)cc2)NC(=O)[C@H](C(C)C)NC(=O)[C@H](Cc2c[nH]c3ccccc23)NC(=O)[C@H](CC(=O)O)NC(=O)[C@H](Cc2ccc(C(=O)O)cc2)NC(=O)[C@H](Cc2ccc(OCC(=O)O)cc2)NC(=O)CSC[C@@H](C(=O)N[C@@H](C)C(N)=O)NC(=O)[C@H](CCCCN)NC(=O)[C@H](C(C)C)NC(=O)[C@H](CC2CCCCC2)NC(=O)[C@H](CCN)NC1=O [Compound 1745] ({CH2CO}-Y(Carboxymethyl)[Phe(4-COOH)]DWV[Bip]V[Orn][dL][Dab][Cha]VKCA-NH2; thioether N-14),4
2,CC(C)C[C@H]1NC(=O)[C@H](CCCN)NC(=O)[C@H](C(C)C)NC(=O)[C@H](Cc2ccc(-c3ccccc3)cc2)NC(=O)[C@H](C(C)C)NC(=O)[C@H](Cc2c[nH]c3ccccc23)NC(=O)[C@H](CC(=O)O)NC(=O)[C@H](Cc2ccc(OCC(=O)O)cc2)NC(=O)[C@H](Cc2ccc(OCC(=O)O)cc2)NC(=O)CSC[C@@H](C(=O)N[C@@H](C)C(N)=O)NC(=O)[C@H](CCCCN)NC(=O)[C@H](C(C)C)NC(=O)[C@H](CC2CCCCC2)NC(=O)[C@H](CCN)NC1=O [Compound 1746] ({CH2CO}-Y(Carboxymethyl)Y(Carboxymethyl)DWV[Bip]V[Orn][dL][Dab][Cha]VKCA-NH2; thioether N-14),8.8
3,CC(C)C[C@H]1NC(=O)[C@H](CCCN)NC(=O)[C@H](C(C)C)NC(=O)[C@H](Cc2ccc(-c3ccccc3)cc2)NC(=O)[C@H](C(C)C)NC(=O)[C@H](Cc2c[nH]c3ccccc23)NC(=O)[C@H](CC(=O)O)NC(=O)[C@H](Cc2ccc(C(=O)O)cc2)NC(=O)[C@H](Cc2ccc(OCC(=O)O)cc2)NC(=O)CSC[C@@H](C(=O)N[C@@H](C)C(N)=O)NC(=O)[C@H](CCCNC(=N)N)NC(=O)[C@H](C(C)C)NC(=O)[C@H](CC2CCCCC2)NC(=O)[C@H](CCN)NC1=O [Compound 1748] ({CH2CO}-Y(Carboxymethyl)[Phe(4-COOH)]DWV[Bip]V[Orn][dL][Dab][Cha]VRCA-NH2; thioether N-14),7.6
4,CC(C)C[C@H]1NC(=O)[C@H](CCCN)NC(=O)[C@H](C(C)C)NC(=O)[C@H](Cc2ccc(-c3ccccc3)cc2)NC(=O)[C@H](C(C)C)NC(=O)[C@H](Cc2c[nH]c3ccccc23)NC(=O)[C@H](CC(=O)O)NC(=O)[C@H](Cc2ccc(OCC(=O)O)cc2)NC(=O)[C@H](CN)NC(=O)CSC[C@@H](C(=O)N[C@@H](C)C(N)=O)NC(=O)[C@H](Cc2cnc[nH]2)NC(=O)[C@H](C(C)C)NC(=O)[C@H](CC2CCCCC2)NC(=O)[C@H](CCN)NC1=O [Compound 1750] ({CH2CO}-[Dap]Y(Carboxymethyl)DWV[Bip]V[Orn][dL][Dab][Cha]VHCA-NH2; thioether N-14),11.3

# More lines, in order of falling IC50, values ahead:
row,IC50 [nM],Structure (SMILES)
1,8.8,CC(C)C[C@H]1NC(=O)[C@H](CCCN)NC(=O)[C@H](C(C)C)NC(=O)[C@H](Cc2ccc(-c3ccccc3)cc2)NC(=O)[C@H](C(C)C)NC(=O)[C@H](Cc2c[nH]c3ccccc23)NC(=O)[C@H](CC(=O)O)NC(=O)[C@H](Cc2ccc(OCC(=O)O)cc2)NC(=O)[C@H](CN)NC(=O)CSC[C@@H](C(=O)N[C@@H](C)C(N)=O)NC(=O)[C@H](CCCN)NC(=O)[C@H](C(C)C)NC(=O)[C@H](CC2CCCCC2)NC(=O)[C@H](CCN)NC1=O [Compound 1741] ({CH2CO}-[Dap]Y(Carboxymethyl)DWV[Bip]V[Orn][dL][Dab][Cha]V[Orn]CA-NH2; thioether N-14)
2,7.8,CC(C)C[C@H]1NC(=O)[C@H](CCCN)NC(=O)[C@H](C(C)C)NC(=O)[C@H](Cc2ccc(-c3ccccc3)cc2)NC(=O)[C@H](C(C)C)NC(=O)[C@H](Cc2c[nH]c3ccccc23)NC(=O)[C@H](CC(=O)O)NC(=O)[C@H](Cc2ccc(C(=O)O)cc2)NC(=O)[C@H](Cc2ccc(OCC(=O)O)cc2)NC(=O)CSC[C@@H](C(=O)N[C@@H](C)C(N)=O)NC(=O)[C@H](Cc2cnc[nH]2)NC(=O)[C@H](C(C)C)NC(=O)[C@H](CC2CCCCC2)NC(=O)[C@H](CCN)NC1=O [Compound 1751] ({CH2CO}-Y(Carboxymethyl)[Phe(4-COOH)]DWV[Bip]V[Orn][dL][Dab][Cha]VHCA-NH2; thioether N-14)
3,6.6,CC(C)C[C@H]1NC(=O)[C@H](CCCN)NC(=O)[C@H](C(C)C)NC(=O)[C@H](Cc2ccc(-c3ccccc3)cc2)NC(=O)[C@H](C(C)C)NC(=O)[C@H](Cc2c[nH]c3ccccc23)NC(=O)[C@H](CC(=O)O)NC(=O)[C@H](Cc2ccc(C(=O)O)cc2)NC(=O)[C@H](Cc2ccc(OCC(=O)O)cc2)NC(=O)CSC[C@@H](C(=O)N[C@@H](C)C(N)=O)NC(=O)[C@H](CCCN)NC(=O)[C@H](C(C)C)NC(=O)[C@H](CC2CCCCC2)NC(=O)[C@H](CCN)NC1=O [Compound 1742] ({CH2CO}-Y(Carboxymethyl)[Phe(4-COOH)]DWV[Bip]V[Orn][dL][Dab][Cha]V[Orn]CA-NH2; thioether N-14)
4,6.4,CC(C)C[C@H]1NC(=O)[C@H](CCCN)NC(=O)[C@H](C(C)C)NC(=O)[C@H](Cc2ccc(-c3ccccc3)cc2)NC(=O)[C@H](C(C)C)NC(=O)[C@H](Cc2c[nH]c3ccccc23)NC(=O)[C@H](CC(=O)O)NC(=O)[C@H](Cc2ccc(OCC(=O)O)cc2)NC(=O)[C@H](CN)NC(=O)CSC[C@@H](C(=O)N[C@@H](C)C(N)=O)NC(=O)[C@H](CCCNC(=N)N)NC(=O)[C@H](C(C)C)NC(=O)[C@H](CC2CCCCC2)NC(=O)[C@H](CCN)NC1=O [Compound 1747] ({CH2CO}-[Dap]Y(Carboxymethyl)DWV[Bip]V[Orn][dL][Dab][Cha]VRCA-NH2; thioether N-14)
5,6,CC(C)C[C@H]1NC(=O)[C@H](CCCN)NC(=O)[C@H](C(C)C)NC(=O)[C@H](Cc2ccc(-c3ccccc3)cc2)NC(=O)[C@H](C(C)C)NC(=O)[C@H](Cc2c[nH]c3ccccc23)NC(=O)[C@H](CC(=O)O)NC(=O)[C@H](Cc2ccc(OCC(=O)O)cc2)NC(=O)[C@H](Cc2ccc(OCC(=O)O)cc2)NC(=O)CSC[C@@H](C(=O)N[C@@H](C)C(N)=O)NC(=O)[C@H](CCCN)NC(=O)[C@H](C(C)C)NC(=O)[C@H](CC2CCCCC2)NC(=O)[C@H](CCN)NC1=O [Compound 1743] ({CH2CO}-Y(Carboxymethyl)Y(Carboxymethyl)DWV[Bip]V[Orn][dL][Dab][Cha]V[Orn]CA-NH2; thioether N-14)
6,4.7,CC(C)C[C@H]1NC(=O)[C@H](CCCN)NC(=O)[C@H](C(C)C)NC(=O)[C@H](Cc2ccc(-c3ccccc3)cc2)NC(=O)[C@H](C(C)C)NC(=O)[C@H](Cc2c[nH]c3ccccc23)NC(=O)[C@H](CC(=O)O)NC(=O)[C@H](Cc2ccc(OCC(=O)O)cc2)NC(=O)[C@H](CN)NC(=O)CSC[C@@H](C(=O)N[C@@H](C)C(N)=O)NC(=O)[C@H](CCCCN)NC(=O)[C@H](C(C)C)NC(=O)[C@H](CC2CCCCC2)NC(=O)[C@H](CCN)NC1=O [Compound 1744] ({CH2CO}-[Dap]Y(Carboxymethyl)DWV[Bip]V[Orn][dL][Dab][Cha]VKCA-NH2; thioether N-14)
7,4.2,CC(C)C[C@H]1NC(=O)[C@H](CCCN)NC(=O)[C@H](C(C)C)NC(=O)[C@H](Cc2ccc(-c3ccccc3)cc2)NC(=O)[C@H](C(C)C)NC(=O)[C@H](Cc2c[nH]c3ccccc23)NC(=O)[C@H](CC(=O)O)NC(=O)[C@H](Cc2ccc(OCC(=O)O)cc2)NC(=O)[C@H](Cc2ccc(OCC(=O)O)cc2)NC(=O)CSC[C@@H](C(=O)N[C@@H](C)C(N)=O)NC(=O)[C@H](CCCNC(=N)N)NC(=O)[C@H](C(C)C)NC(=O)[C@H](CC2CCCCC2)NC(=O)[C@H](CCN)NC1=O [Compound 1749] ({CH2CO}-Y(Carboxymethyl)Y(Carboxymethyl)DWV[Bip]V[Orn][dL][Dab][Cha]VRCA-NH2; thioether N-14)
